Read-outs that look alike come from different tables or passages of the source.
Tests used:
HL-60 = experiment: MTT cell viability assay, HL-60 leukaemia cells; assay type: cell-based; settings: Homo sapiens
Method: (§1) The four human tumour cell lines MCF-7, HCT-116, HL-60 and HeLa used in this study were obtained from the VACSERA (Giza, Egypt) cell culture unit that were originally acquired from ATCC (Manassas, VA, USA). All the human tumour cell lines were cultured in Dulbecco’s Modified Eagle’s Medium (DMEM) with 10% foetal bovine serum, 2 mM L-glutamine and 100 µg/mL penicillin/streptomycin. Cells were maintained at 37 °C in 5% CO2 in a humidified incubator. All cells were sub-cultured 3 times/week by trypsinisation using TrypLE Express (1X).
(§2) The quinoline compounds were evaluated for antiproliferative effect using the MTT viability assay of four cancer cell lines (MCF-7, HCT-116, HL-60 and HeLa) and normal breast cells MCF-10A to calculate the relative IC50 values for each compound. Cells were seeded in triplicate in 96-well plates at a density of 10 × 10^3 cells/ml in a total volume of 200 µl per well. 0.1% of DMSO was used as a vehicle control. Following, the cells were treated with 2 µl test compound (from stock solutions in ethanol) to furnish the concentration range of study, 1 nM to 50 µM, and re-incubated for a further 72 h. The culture medium was then removed, and the cells washed with 100 µL phosphate buffered saline (PBS) and 50 µL MTT added, to reach a final concentration of 1 mg/mL. Cells were incubated for 2 h in darkness at 37 °C. Solubilisation was begun through the addition of […] DMSO, and the cells maintained at room temperature in darkness for 20 min to ensure thorough colour diffusion before reading the absorbance. Plates were incubated for 72 h at 37 °C + 5% CO2. The MTT (5 mg/mL in PBS) was added and incubated for another 4 h, and the optical density was detected with a microplate reader at 570 nm. Results were expressed as percentage viability relative to vehicle control (100%). Dose response curves were plotted and IC50 values (concentration of drug resulting in 50% reduction in cell survival) were obtained using the commercial software package Prism (GraphPad Software, Inc., La Jolla, CA, USA). All the experiments were repeated in at least three independent experiments.

MCF-10A = experiment: MTT cell viability assay, normal epithelial breast MCF-10A cells; assay type: cell-based; settings: Homo sapiens, 72 h
Method: as §2, with “Dose response curves were plotted and IC50 values (concentration of drug resulting in 50% reduction in cell survival) were obtained using the commercial software package Prism (GraphPad Software, Inc., La Jolla, CA, USA). All the experiments were repeated in at least three independent experiments.” left out

[1] = test system: tubulin (colchicine binding site); experiment: Colchicine site competitive binding assay ([3H]colchicine); settings: tubulin 1 µM, colchicine 5 µM
Method: The affinity of compounds 12c to colchicine binding site was determined using Colchicine Site Competitive Assay kit CytoDYNAMIX Screen15 (Cytoskeleton, Inc., Denver, CO, USA) using the standard protocol of the manufacturer to determine Ki. Biotin-labelled tubulin ([…], PerkinElmer, Waltham, MA) and the test compounds (positive control colchicine, negative control vinblastine, G-1, fluorescent G-1, or 2-ME) in a 96-well plate (final volume: 100 µL). After incubating for 2 h at 37 °C with gentle shaking, streptavidin-labelled yttrium SPA beads (80 µg in 20 µL reaction buffer, PerkinElmer, Waltham, MA) were added to each well and incubated for 30 min at 4 °C. The plates were then read on a scintillation counter (Packard Instrument, Topcount Microplate Reader) and the percentage of inhibition was calculated[50]^,[51].

MCF-7 cells [2] = experiment: Intracellular ROS production (H2-DCFDA); assay type: cell-based, human; settings: 24 h, untreated 1.0%
Method: (§3) Mitochondrial membrane potential (Δψmt) was measured by flow cytometry with DiOC2(3) staining and additional labelling with an annexin V conjugate. After treatment with compound 12c (50 and 250 nM) and CA-4 (50 nM), cells were stained with DiOC2(3) dye for 30 min in the incubator, then harvested and washed with PBS. DiOC2(3)-stained cells were resuspended with 1X annexin binding buffer, followed by addition of annexin V conjugate and incubated at 37 °C for 15 min. The data from the flow cytometry were analysed by Cell Quest software. Production of intracellular reactive oxygen species (ROS) was measured using 2,7–dichlorofluorescin diacetate (H2-DCFDA) dye. MCF-7 cells were seeded and treated either with vehicle (0.1% DMSO) or with compound 12c (50 and 250 nM) or CA-4 (50 nM) for 6, 12 and 24 h. H2O2 was used as a positive control. The amount of ROS generated was estimated after 2 h of selected compound treatment. The cells were collected by centrifugation and washed twice with PBS. Cells were then incubated with DCFDA dye (25 µM) in dark at 37 °C for 1 h. Fluorescence spectra (510 − 600 nm) were monitored using an excitation wavelength of 488 nm[53]^,[54].

[3] = test system: anti-apoptotic protein Bcl-2; experiment: Bcl-2 ELISA, expression level in MCF-7 cells; assay type: cell-based, human; settings: MCF-7, 250 nM, 48 h
Method: (§4) The level of the anti-apoptotic marker and apoptotic marker BAX were assessed using Bcl-2 Elisa kit and human Bax ELISA Kit purchased from Zymed laboratories, invitrogen and Cloud-Clone Crop. (Katy, TX, USA), respectively, following the manufacturer’s instructions. Briefly, Treated MCF-7 cell lysate with 250 nM of compound 12c were prepared, and equal amount of cell lysates were loaded and propped with specific antibodies. The samples were measured and analysed at 450 nm in ROBONEK P2000 ELISA reader. In Vitro Caspase-9 Activation Assay was performed using human active caspase-9 Invitrogen EIA kit according to the manufacturer’s instructions. Compound 12c at concentrations of 50 and 250 nM and CA-4 (50 nM) were prepared in dH2O up to a final volume of 50 µL/well followed by addition of 5 µL of active caspase-9. Following, the cells were mixed and 50 µL of the Master Mix was added to each well and allowed to react at 37 °C for 1 h. The fluorescence intensity of the test samples was recorded and analysed in a fluorescence plate reader at 400 nm excitation and 505 nm emissions. All experiments were conducted in triplicates.

[4] = test system: pro-apoptotic protein Bax; experiment: Bax ELISA, expression level in MCF-7 cells; assay type: cell-based, human; settings: MCF-7, 250 nM, 48 h
Method: as §4

MCF-7 cells [5] = experiment: Wound healing assay; assay type: cell-based, human
Method: MCF-7 were grown in 6-well plates for 24 h, and scratches were made using pipette tip and washed with PBS to remove non-adherent cell debris. Subsequently, the cells were treated with different concentrations of 12c for 24 h. The migrations across the wound area were photographed under a phase contrast microscopy.

MCF-7 cells [6] = experiment: Mitochondrial membrane potential (DiOC2(3), annexin V, flow cytometry); assay type: cell-based, human; settings: 24 h, untreated 1.1%
Method: as §3

[7] = test system: MCF-7, HL-60, HCT-116 and HeLa; experiment: MTT cell viability assay, statements over all four cancer cell lines; assay type: cell-based, human; settings: Homo sapiens
Method: as §1, §2

[8] = 72 h, read-out: IC50 value, HL-60

IC50 (HL-60; read-out: IC50, HL-60) | IC50 [7] | Structure (SMILES) | IC50 (HL-60; [8]) | IC50 (MCF-10A) | Colchicine binding, % inhibition of [3H]colchicine binding ([1]; 1 µM drug) | Colchicine binding, % inhibition of [3H]colchicine binding ([1]; 5 µM drug) | levels of ROS in MCF-7 cells (MCF-7 cells [2]; 50 nM) | expression level of the anti-apoptotic protein Bcl-2 [3] | expression of the pro-apoptotic protein Bax [4] | MCF-7 cell migration into wound area (MCF-7 cells [5]) | percentage of apoptotic cells with decrease in MMP (MCF-7 cells [6]; 50 nM) | percentage of apoptotic cells with decrease in MMP (MCF-7 cells [6]; 250 nM) | levels of ROS in MCF-7 cells (MCF-7 cells [2]; 250 nM)
– | – | COc1ccc(/C=C\c2cc(OC)c(OC)c(OC)c2)cc1O [CA-4, Combretastatin A-4] | 76 ± 4 nM | 6100 nM | 86 ± 0.9% | 97 ± 2% | 18.3% | – | – | – | – | – | –
10 nM | 10 to 42 nM | COc1cc(C2=NC(=Cc3cc4ccc(C)cc4nc3OC)C(=O)O2)cc(OC)c1OC [Compound 12c, 4-[(2-Methoxy-7-methylquinolin-3-yl)methylene]-2–(3,4,5-trimethoxyphenyl) oxazol-5(4H)-one] | 19 nM | > 50000 nM | 79 ± 2% | 87 ± 1% | 22.7% | decreased | up-regulated | significantly inhibited in a dose-dependent manner | 24.9% | 31.3% | 26.6%

— publication PMC7993375, “Discovery of novel quinoline-based analogues of combretastatin A-4 as tubulin polymerisation inhibitors with apoptosis inducing activity and potent anticancer effect” (Journal of Enzyme Inhibition and Medicinal Chemistry, 2021)
